ChEMBL document CHEMBL5032539, “Indole-Containing Amidinohydrazones as Nonpeptide, Dual RXFP3/4 Agonists: Synthesis, Structure-Activity Relationship, and Molecular Modeling Studies” (J Med Chem, 2021)
In brackets after ≈: the same amount, converted by molar mass.

biological target: T1, Relaxin-3 receptor 1 (Homo sapiens, UniProt Q9NSD7); experiment: not given; details: not given
T1 sequence (Q9NSD7 whole entry): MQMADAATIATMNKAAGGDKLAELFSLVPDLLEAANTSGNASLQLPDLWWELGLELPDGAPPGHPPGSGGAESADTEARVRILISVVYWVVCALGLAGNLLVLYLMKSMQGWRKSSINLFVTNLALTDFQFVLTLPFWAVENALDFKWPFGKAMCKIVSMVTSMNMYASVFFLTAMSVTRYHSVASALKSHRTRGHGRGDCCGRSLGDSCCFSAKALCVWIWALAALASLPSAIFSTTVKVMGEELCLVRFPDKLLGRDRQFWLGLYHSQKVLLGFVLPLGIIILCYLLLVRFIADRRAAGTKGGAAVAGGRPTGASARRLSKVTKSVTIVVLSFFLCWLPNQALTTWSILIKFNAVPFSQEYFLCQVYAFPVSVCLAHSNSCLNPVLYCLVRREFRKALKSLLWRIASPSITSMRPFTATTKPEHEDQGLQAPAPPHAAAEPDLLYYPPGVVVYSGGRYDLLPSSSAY

Point of comparison: `COc1cc(C)c2[nH]cc(/C=N/NC(=N)NCCc3ccccc3)c2c1`, EC50 224 nM. Against it:
- COc1cc(C)c2[nH]cc(/C=N/NC(=N)NCCc3ccc(Cl)cc3)c2c1 — 3-fold lower, 74.7 nM
- COC(=O)c1ccc(CCNC(=N)N/N=C/c2c[nH]c3c(C)cc(OC)cc23)cc1 — 29-fold lower, 7.7 nM
- COc1cc(C)c2[nH]cc(/C=N/NC(=N)NCCc3ccc(I)cc3)c2c1 — 3.3-fold lower, 67 nM
- COc1ccc(CCNC(=N)N/N=C/c2c[nH]c3c(C)cc(OC)cc23)cc1 — 4-fold lower, 56.1 nM
- N#Cc1ccc2[nH]cc(/C=N/NC(=N)NCCc3ccc(Cl)cc3)c2c1 — within 1.5-fold, 253 nM
- Cc1ccc2c(/C=N/NC(=N)NCCc3ccc(Cl)cc3)c[nH]c2c1 — 33-fold higher, 7440 nM
- COc1cc(C)c2[nH]cc(/C=N/NC(=N)Nc3ccc(Cl)cc3)c2c1 — 14-fold higher, 3120 nM
- Cc1cc(C#N)cc2c(/C=N/NC(=N)NCCc3ccc(Cl)cc3)c[nH]c12 — 2.7-fold lower, 82.3 nM
- COc1cc(C)c2[nH]cc(/C=N/NC(=N)NCCc3ccc([N+](=O)[O-])cc3)c2c1 — 16-fold lower, 13.6 nM
- COc1ccc2c(/C=N/NC(=N)NCCc3ccc(Cl)cc3)c[nH]c2c1 — 21-fold higher, 4750 nM
- CCc1cc(OC)cc2c(/C=N/NC(=N)NCCc3ccc(Cl)cc3)c[nH]c12 — 11-fold lower, 19.5 nM
- COc1cc(C)c2[nH]cc(/C=N/NC(=N)NCCc3ccc(N(C)C)cc3)c2c1 — 2.3-fold lower, 98.4 nM
- Cc1cccc2c(/C=N/NC(=N)NCCc3ccc(Cl)cc3)c[nH]c12 — 2.9-fold higher, 647 nM
- COc1cc(C)c2[nH]cc(/C=N/NC(=N)NCCCc3ccc(Cl)cc3)c2c1 — 7.4-fold higher, 1660 nM
- CCc1cc(OC)cc2c(/C=N/NC(=N)NCCc3ccc(F)cc3)c[nH]c12 — […]-fold lower, 5.6 nM
- N=C(NCCc1ccc(Cl)cc1)N/N=C/c1c[nH]c2cc(F)ccc12 — 15-fold higher, 3470 nM
- CCc1cc(OC)cc2c(/C=N/NC(=N)NCCc3cccnc3)c[nH]c12 — 97-fold lower, 2.3 nM
- COc1cc(C)c2[nH]cc(/C=N/NC(=N)NCCc3ccc(Br)cc3)c2c1 — 3.2-fold lower, 69.9 nM
- N=C(NCCc1ccc(Cl)cc1)N/N=C/c1c[nH]c2cccc(F)c12 — 14-fold higher, 3210 nM
- N=C(NCCc1ccc(Cl)cc1)N/N=C/c1c[nH]c2ccccc12 — 31-fold higher, 6940 nM
- COc1ccc2[nH]cc(/C(C)=N/NC(=N)NCCc3ccc(Cl)cc3)c2c1 — 34-fold higher, 7690 nM
- COc1cc(C)c2[nH]cc(/C=N/NC(=N)NCCc3ccccn3)c2c1 — 3.8-fold higher, 855 nM
- N=C(NCCc1ccc(Cl)cc1)N/N=C/c1c[nH]c2ccc(Cl)cc12 — 13-fold higher, 2820 nM
- N=C(NCCc1ccc(Cl)cc1)N/N=C/c1c[nH]c2c(F)cccc12 — 12-fold higher, 2790 nM
- N=C(NCCc1ccc(Cl)cc1)N/N=C/c1c[nH]c2ccc(F)cc12 — 6.1-fold higher, 1360 nM
- COc1cc(C)c2[nH]cc(/C=N/NC(=N)NCc3ccc(Cl)cc3)c2c1 — 18-fold higher, 3950 nM
- N=C(NCCc1ccc(Cl)cc1)N/N=C/c1c[nH]c2ccc([N+](=O)[O-])cc12 — within 1.5-fold, 317 nM
- COc1cc(C)c2[nH]cc(/C=N/NC(=N)NCCc3ccc(C#N)cc3)c2c1 — 17-fold lower, 13.2 nM

biological target: Relaxin-3 receptor 2 (Homo sapiens, UniProt Q8TDU9); experiment: not given; details: not given
Sequence (Q8TDU9 whole entry): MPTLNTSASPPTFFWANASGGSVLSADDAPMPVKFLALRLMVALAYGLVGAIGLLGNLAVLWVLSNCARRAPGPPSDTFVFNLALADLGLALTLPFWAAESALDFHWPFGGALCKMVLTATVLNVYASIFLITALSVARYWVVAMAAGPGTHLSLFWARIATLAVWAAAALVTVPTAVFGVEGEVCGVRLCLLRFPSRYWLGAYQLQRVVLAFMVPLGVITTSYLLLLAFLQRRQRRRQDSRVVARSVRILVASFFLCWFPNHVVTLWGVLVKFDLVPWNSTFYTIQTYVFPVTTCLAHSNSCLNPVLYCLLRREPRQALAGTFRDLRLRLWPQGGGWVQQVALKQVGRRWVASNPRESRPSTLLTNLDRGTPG

Point of comparison: `CCc1cc(O)cc2c(/C=N/NC(=N)NCCc3ccc(Cl)cc3)c[nH]c12`, EC50 0.8 nM. Against it:
- COC(=O)c1ccc(CCNC(=N)N/N=C/c2c[nH]c3c(C)cc(OC)cc23)cc1 — 4.2-fold higher, 3.4 nM
- CCc1cc(OC)cc2c(/C=N/NC(=N)NCCc3ccc(C#N)cc3)c[nH]c12 — 2.2-fold higher, 1.8 nM
- CCc1cc(OC)cc2c(/C=N/NC(=N)NCCc3ccc(F)cc3)c[nH]c12 — 5-fold higher, 4 nM
- CCc1cc(OC)cc2c(/C=N/NC(=N)NCCc3cccnc3)c[nH]c12 — within 1.5-fold, 1.1 nM
- COC(=O)c1ccc(CCNC(=N)N/N=C/c2c[nH]c3c(C)cc(C#N)cc23)cc1 — 3.4-fold higher, 2.7 nM
- CCc1cc(C#N)cc2c(/C=N/NC(=N)NCCc3cccnc3)c[nH]c12 — within 1.5-fold, 0.9 nM

test system: not listed separately; experiment: physchem; details: buffer, pH 7.4

Point of comparison: `CCc1cc(OC)cc2c(/C=N/NC(=N)NCCc3ccc(F)cc3)c[nH]c12`, solubility kinetic at 2 h 19.5 µM (≈ 7.44 µg/mL). Against it:
- CCc1cc(OC)cc2c(/C=N/NC(=N)NCCc3cccnc3)c[nH]c12 — 3.8-fold higher, 74.6 µM (≈ 27.2 µg/mL)

biological target: T1, Relaxin-3 receptor 1; experiment: biochemical; details: not given

For `COc1cc(C)c2[nH]cc(/C=N/NC(=N)NCCc3ccc(C#N)cc3)c2c1`, the Ki was 268 nM.
